Consider one molecule from US11642320B2, “Nanoparticulate prodrugs” (priority 2016, dated 2023).

The Cmax is the peak of the concentration-time curve. As a reminder, the MRT is the average time that molecules of a dose stay in the body. As a reminder, the Tmax is the time from dosing to the highest level. In general, Vd refers to a proportionality between amount in the body and measured concentration, not a real space.

One data set has as its system TNFα. Kind of data set: Cytokine release from LPS-treated macrophages: TNFα. It is filed as cell-based, mouse. Particulars: RAW 264.7, LPS 0.1 μg/mL, 24 hours; 100 μg/ml DXP or same equivalent concentration (82 μg/ml dexamethasone phosphate). As for the experimental part:
(§1) For the cytokine release experiment, the RAW 264.7 cells were seeded in 24-well plates at a cellular density of 4×10^4 cells/well in culture medium and they were left in the incubator for 48 hours to reach 80% confluency. Then, the medium was replaced by fresh medium alone or fresh medium with LPS at 0.1 μg/mL, and the plates were incubated another 3 hours. Afterwards, the “standard” nanoparticles produced by emulsification-solvent evaporation at three concentrations: 1, 10 and 100 μg/mL of DXP and free dexamethasone phosphate at 82 μg/ml, which correspond to 100 μg/ml DXP considering molecular weight ratio, were added to some wells. Culture medium alone was used as negative control and LPS 0.1 μg/mL as positive control.
(§2) After 24 hours of incubation with the treatments, the supernatants were collected and frozen at −20° C. until the analysis was performed. The cells were detached and counted.
(§3) The mouse inflammatory cytokines TNFα, MCP-1, IL-10 and IL-6 were quantified using a Cytometric Beads Array (CBA) detection kit (BD Biosciences, USA). This study was performed in triplicate.

Another data set deals with IL-6. Kind of data set: Cytokine release from LPS-treated macrophages: IL-6. It is filed as cell-based, mouse. To be noted: RAW 264.7, LPS 0.1 μg/mL, 24 hours. Here is the method: as §1, §2, §3
Data set [1] deals with pro-inflammatory cytokine release, raw264.7 cells. Nature of the data set: Control cytokine release assay without LPS treatment. To be noted: raw264.7 cells without any LPS treatment. The class given is cell-based, mouse. As for the experimental part:
as §3
This confirms that the developed nanoparticles are suitable for anti-inflammatory treatment as expected.

Data set [2] is described as follows: Pharmacokinetics in plasma after intravenous injection. More on the design: species or system mice. Particulars: male, DBA/lOlaHsd, mouse, in vivo, 12 mg/kg. As for the experimental part:
Nanoparticles were prepared by emulsion-evaporation as described above and were diluted in PBS to obtain a final concentration of 2.5 mg/ml DXP, which corresponds to 1.55 mg/ml dexamethasone base. […] DXM. DBA/lOlaHsd male mice aged of 9 weeks (Envigo) were divided into two groups. One received the nanoparticle suspension and the other received the control, administration was carried out by intravenous injection in the tail vein at 12 mg/kg eq. DXM. For each group, 11 pharmacokinetic time points were performed with 7 mice per point, from 10 min to 48 hours. Blood sampling was achieved by terminal cardiac puncture using a 25G needle while mice were previously anesthetized with a lethal dose of pentobarbital. Immediately after, blood was centrifuged to recover plasma which was stored at −80° C. For every time point, 5 mice out of 7 underwent organs sampling after cardiac puncture. Liver, spleen, kidneys and lungs were removed and stored at −80° C.
To achieve quantification of DXM and DXP in plasma, an extraction process was developed. 100 μl of plasma samples were introduced into centrifugation tubes and 100 μl of the internal standart at 4 μg/ml in acetonitrile was added and vortexed during 30 seconds. 3 ml of a mixture chloroform/methanol: 9/1 (v/v) was added and tubes were vortexed vigorously 3 minutes. Centrifugation were performed at 3500 rpm, 30 min. Organic phase was recovered and evaporated using an evaporator under gas flow. Dried molecules were dissolved in 200 μl acetonitrile and this sample was analyzed by HPLC-UV. Calibration curves of DXP and DXM were linear, respectively in the range 0.5-100 μg/ml (R^2=0.9997, y=0.2199x−0.0165) and 0.1-100 μg/ml (R^2=0.9974, y=1.056x+0.1445). Regarding short time points (10 min, 20 min, 40 min), DXP and DXM concentrations were above the linearity range of the calibration curve. A second calibration curve for each molecule was set up, beginning with 50 μl plasma completed to 100 μl with milliQ water. Following stages were the same than previously described. Calibration curves “50 μl plasma” of DXP and DXM were linear, respectively in the range 50-800 μg/ml (R^2=0.9808, y=0.2229x−3.2128) and 20-400 μg/ml (R^2=0.9986, y=0.7178x−0.059). Internal standard was testosterone decanoate for DXP and dexamethasone acetate for DXM quantification.

Take `C[C@@H]1C[C@H]2[C@@H]3CCC4=CC(=O)C=C[C@]4(C)[C@@]3(F)[C@@H](O)C[C@]2(C)[C@@]1(O)C(=O)COP(=O)(O)O` [DSP, dexamethasone sodium phosphate]: the TNFα release entry in the data set with TNFα is on record as “no effect detected”. In the data set on IL-6, the IL-6 release result is “No significant reduction”. In addition, the “induction of pro-inflammatory cytokine release” value in data set [1] is “neither DXP nanoparticles nor free drug induce pro-inflammatory cytokine release”. In data set [2], this molecule registered an AUC0→t of 18755 µg·min/mL, a C0 of 22400 ng/mL, a Clearance of 0.0046 mL/min and a Cmax of 22100 ng/mL. Also, in data set [2], the MRT came to 45 h, the Tmax amounted to 0.167 h, the Vd was determined as 12.50 mL and the “plateau of DXM in plasma” value is listed as “around 10 % of the injected dose”. This molecule showed a t1/2 in data set [2] of 28.8 h.
